Tested on: 282377-053-R-J1-PDC complex spheroids, viability
Experiment: Anticancer human tumor 282377-053-R-J1-PDC patient-derived colon adenocarcinoma cell line growth inhibition [GQUAD]
Settings: for IC50: curve of first compound; for viability, T/C: stronger effect = lower value
Method in brief: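 Tumor cells were grown as complex spheroids with HUVEC endothelial cells and mesenchymal stem cells as stroma. G-quadruplex stabilizers were combined with targeted agents over half-log dilutions from near the clinical Cmax, or from 10 microM.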

[1] = second compound 0.0316 µM, first compound 0.0316 µM
[2] = second compound 0.0316 µM, first compound 0.1 µM
[3] = second compound 0.0316 µM, first compound 0.316 µM
[4] = second compound 0.0316 µM, first compound 1 µM
[5] = second compound 0.0316 µM, first compound 3.16 µM
[6] = second compound 0.0316 µM, first compound 10 µM
[7] = second compound 0.1 µM, first compound 0.0316 µM
[8] = second compound 0.1 µM, first compound 0.1 µM
[9] = second compound 0.1 µM, first compound 0.316 µM
[10] = second compound 0.1 µM, first compound 1 µM
[11] = second compound 0.1 µM, first compound 3.16 µM
[12] = second compound 0.1 µM, first compound 10 µM
[13] = second compound 0.316 µM, first compound 0.0316 µM
[14] = second compound 0.316 µM, first compound 0.1 µM
[15] = second compound 0.316 µM, first compound 0.316 µM
[16] = second compound 0.316 µM, first compound 1 µM
[17] = second compound 0.316 µM, first compound 3.16 µM
[18] = second compound 0.316 µM, first compound 10 µM
[19] = second compound 1 µM, first compound 0.0316 µM
[20] = second compound 1 µM, first compound 0.1 µM
[21] = second compound 1 µM, first compound 0.316 µM
[22] = second compound 1 µM, first compound 1 µM
[23] = second compound 1 µM, first compound 3.16 µM
[24] = second compound 1 µM, first compound 10 µM
[25] = second compound 3.16 µM, first compound 0.0316 µM
[26] = second compound 3.16 µM, first compound 0.1 µM
[27] = second compound 3.16 µM, first compound 0.316 µM
[28] = second compound 3.16 µM, first compound 1 µM
[29] = second compound 3.16 µM, first compound 3.16 µM
[30] = second compound 3.16 µM, first compound 10 µM
[31] = second compound 10 µM, first compound 0.0316 µM
[32] = second compound 10 µM, first compound 0.1 µM
[33] = second compound 10 µM, first compound 0.316 µM
[34] = second compound 10 µM, first compound 1 µM
[35] = second compound 10 µM, first compound 3.16 µM
[36] = second compound 10 µM, first compound 10 µM
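Also: spheroids exposed to compounds for 7 days before readout.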
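For viability, T/C in this document: percent of vehicle DMSO control viability with 100% = untreated-like growth.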

Nc1ccn(C2OC(CO)C(O)C2(F)F)c(=O)n1 (centres undefined) + Cc1cnc(CNC(=O)c2c(=O)c3ccc(N4CCCN(C)CC4)nc3n3c2sc2ccccc23)cn1
IC50 (second compound 0.0316 µM): 0.157 µM | IC50 (second compound 0.1 µM): 0.144 µM | IC50 (second compound 0.316 µM): 0.12 µM | IC50 (second compound 1 µM): 0.0494 µM | IC50 (second compound 3.16 µM): < 0.0316 µM | IC50 (second compound 10 µM): < 0.0316 µM | viability, T/C [1]: 98.5% | viability, T/C [2]: 65.9% | viability, T/C [3]: 25.2% | viability, T/C [4]: 24% | viability, T/C [5]: 22.9% | viability, T/C [6]: 16.7% | viability, T/C [7]: 104% | viability, T/C [8]: 61.7% | viability, T/C [9]: 24.5% | viability, T/C [10]: 24.9% | viability, T/C [11]: 25.1% | viability, T/C [12]: 16.3% | viability, T/C [13]: 81.6% | viability, T/C [14]: 53.6% | viability, T/C [15]: 32% | viability, T/C [16]: 22.1% | viability, T/C [17]: 22.7% | viability, T/C [18]: 16.2% | viability, T/C [19]: 53.9% | viability, T/C [20]: 44.1% | viability, T/C [21]: 25.6% | viability, T/C [22]: 22.4% | viability, T/C [23]: 20.4% | viability, T/C [24]: 15.7% | viability, T/C [25]: 49.1% | viability, T/C [26]: 37.5% | viability, T/C [27]: 23.2% | viability, T/C [28]: 21% | viability, T/C [29]: 22.4% | viability, T/C [30]: 15.9% | viability, T/C [31]: 39.2% | viability, T/C [32]: 33.5% | viability, T/C [33]: 22.1% | viability, T/C [34]: 20.3% | viability, T/C [35]: 20% | viability, T/C [36]: 10.8%

O=C(NO)c1cnc(N2CCN(S(=O)(=O)c3ccc4ccccc4c3)CC2)nc1 + Cc1cnc(CNC(=O)c2c(=O)c3ccc(N4CCCN(C)CC4)nc3n3c2sc2ccccc23)cn1
IC50 (second compound 0.0316 µM): 0.36 µM | IC50 (second compound 0.1 µM): 0.406 µM | IC50 (second compound 0.316 µM): 0.189 µM | IC50 (second compound 1 µM): 0.0823 µM | IC50 (second compound 3.16 µM): < 0.0316 µM | IC50 (second compound 10 µM): < 0.0316 µM | viability, T/C [1]: 98.6% | viability, T/C [2]: 78.5% | viability, T/C [3]: 57.9% | viability, T/C [4]: 2.29% | viability, T/C [5]: 0.07% | viability, T/C [6]: 0.11% | viability, T/C [7]: 99.3% | viability, T/C [8]: 88% | viability, T/C [9]: 63.5% | viability, T/C [10]: 1.62% | viability, T/C [11]: 0.05% | viability, T/C [12]: 0.11% | viability, T/C [13]: 84.3% | viability, T/C [14]: 64.7% | viability, T/C [15]: 39.2% | viability, T/C [16]: 1.28% | viability, T/C [17]: 0.04% | viability, T/C [18]: 0.08% | viability, T/C [19]: 55.3% | viability, T/C [20]: 46.6% | viability, T/C [21]: 27.1% | viability, T/C [22]: 0.1% | viability, T/C [23]: 0.05% | viability, T/C [24]: 0.09% | viability, T/C [25]: 41% | viability, T/C [26]: 53.3% | viability, T/C [27]: 22.9% | viability, T/C [28]: 0.12% | viability, T/C [29]: 0.1% | viability, T/C [30]: 0.15% | viability, T/C [31]: 36.9% | viability, T/C [32]: 9.96% | viability, T/C [33]: 0.28% | viability, T/C [34]: 0.24% | viability, T/C [35]: 0.17% | viability, T/C [36]: 0.2%

Reference: PubChem BioAssay AID2060501 (Molecular Pharmacology Branch, DTP, NCI, 2025)
